Source: patent US12110276B2 (Genentech, Inc., priority 2021, dated 2024)

Experiments:
TEAD1 = TEAD1 (Homo sapiens (Human), UniProt P28347); assay: TR-FRET lipid pocket probe competition assay (Lipid HTRF), TEAD1; assay type: binding; conditions: 4 hours pre-incubation; read-out: Lipid HTRF TEAD1 IC50;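 further: His-tagged TEAD1 with biotinylated probe, detected via Europium anti-His and XL665 streptavidin, probe displacement lowers TR-FRET signal, IC50 from four-parameter nonlinear fit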
TEAD3 = TEAD3 (Homo sapiens (Human), UniProt Q99594); assay: TR-FRET lipid pocket probe competition assay (Lipid HTRF), TEAD3; assay type: binding; conditions: 4 hours pre-incubation; read-out: Lipid HTRF TEAD3 IC50
TEAD4 = TEAD4 (Homo sapiens (Human), UniProt Q15561); assay: TR-FRET lipid pocket probe competition assay (Lipid HTRF), TEAD4; assay type: binding; conditions: 4 hours pre-incubation; read-out: Lipid HTRF TEAD4 IC50;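 further: His-tagged TEAD4 with biotinylated lipid-pocket probe, read by Europium anti-His and XL665 streptavidin, where probe displacement lowers the TR-FRET signal, IC50 from a four-parameter fit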
TEAD2 = TEAD2 (Homo sapiens (Human), UniProt Q15562);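 further: TR-FRET competition assay with His-tagged TEAD protein and a biotinylated lipid pocket probe, compound pre-incubated 30 min or 4 h at room temperature, displacement lowers signal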
Sequence of TEAD2 (Q15562 whole entry, species assumed): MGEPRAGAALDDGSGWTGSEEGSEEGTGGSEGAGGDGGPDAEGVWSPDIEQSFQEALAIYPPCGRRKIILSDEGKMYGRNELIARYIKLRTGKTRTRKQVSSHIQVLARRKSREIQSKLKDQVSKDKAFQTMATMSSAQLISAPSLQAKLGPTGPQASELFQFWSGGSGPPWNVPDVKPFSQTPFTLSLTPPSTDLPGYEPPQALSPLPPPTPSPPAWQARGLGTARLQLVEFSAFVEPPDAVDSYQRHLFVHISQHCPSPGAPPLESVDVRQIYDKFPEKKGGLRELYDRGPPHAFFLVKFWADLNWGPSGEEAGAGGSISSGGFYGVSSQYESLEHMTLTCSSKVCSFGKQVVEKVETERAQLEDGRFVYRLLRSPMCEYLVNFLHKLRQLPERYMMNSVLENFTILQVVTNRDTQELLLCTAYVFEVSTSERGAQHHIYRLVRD
Procedure: His-tagged TEAD proteins are pre-incubated with TEAD project compounds for 30 minutes or 4 hours at room temperature. Biotinylated lipid pocket probes are then added to the TEAD/Compound mixture and incubated for 60 minutes at room temperature. The lipid pocket probe competes with the test compound for the TEAD lipid pocket until equilibrium is reached. After 60 minutes, Europium labelled anti-His (Perkin Elmer #AD0110) and XL665 labelled streptavidin (CIS Bio 610SAXAC) are added to the TEAD/test compound/lipid pocket mixture and incubated for 30 minutes or 4 hours. TR-FRET values are then measured using an EnVision multi-label plate reader (Perkin Elmer Cat #2104-0010A.) If the lipid pocket probe binds to TEAD as expected, a TR-FRET signal results from the proximity of anti-His Eu and XL665. If a TEAD lipid pocket binder such as binds and displaces the lipid pocket probe, the disruption of the TEAD:probe interaction results in a decrease in TR-FRET signal. The potency of compounds as TEAD lipid pocket binders is determined by IC50 value generated using a non-linear 4 parameter curve fit.

Sequence of TEAD1 (P28347 whole entry, species assumed): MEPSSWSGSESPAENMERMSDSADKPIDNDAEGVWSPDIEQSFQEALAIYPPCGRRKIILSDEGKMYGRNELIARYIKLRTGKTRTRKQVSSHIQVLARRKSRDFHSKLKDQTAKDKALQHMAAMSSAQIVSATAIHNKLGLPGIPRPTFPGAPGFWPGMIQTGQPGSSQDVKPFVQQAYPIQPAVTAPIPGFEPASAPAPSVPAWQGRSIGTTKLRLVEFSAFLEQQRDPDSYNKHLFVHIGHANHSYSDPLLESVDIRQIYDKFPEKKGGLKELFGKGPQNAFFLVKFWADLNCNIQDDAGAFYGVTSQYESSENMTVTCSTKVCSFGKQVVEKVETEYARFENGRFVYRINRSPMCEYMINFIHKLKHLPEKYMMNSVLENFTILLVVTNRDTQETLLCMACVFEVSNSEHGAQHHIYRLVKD
Sequence of TEAD3 (Q99594 whole entry, species assumed): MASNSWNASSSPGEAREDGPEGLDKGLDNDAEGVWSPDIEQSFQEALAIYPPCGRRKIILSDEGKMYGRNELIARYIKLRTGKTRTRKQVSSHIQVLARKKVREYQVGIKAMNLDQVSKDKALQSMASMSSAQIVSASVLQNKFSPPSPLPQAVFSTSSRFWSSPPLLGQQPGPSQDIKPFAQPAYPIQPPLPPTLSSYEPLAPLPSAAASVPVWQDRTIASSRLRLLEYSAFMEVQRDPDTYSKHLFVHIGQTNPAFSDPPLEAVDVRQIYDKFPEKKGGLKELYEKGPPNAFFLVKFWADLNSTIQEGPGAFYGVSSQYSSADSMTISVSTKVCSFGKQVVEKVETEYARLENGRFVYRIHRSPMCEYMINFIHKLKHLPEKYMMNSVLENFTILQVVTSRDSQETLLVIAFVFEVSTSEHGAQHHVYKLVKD
Sequence of TEAD4 (Q15561 whole entry, species assumed): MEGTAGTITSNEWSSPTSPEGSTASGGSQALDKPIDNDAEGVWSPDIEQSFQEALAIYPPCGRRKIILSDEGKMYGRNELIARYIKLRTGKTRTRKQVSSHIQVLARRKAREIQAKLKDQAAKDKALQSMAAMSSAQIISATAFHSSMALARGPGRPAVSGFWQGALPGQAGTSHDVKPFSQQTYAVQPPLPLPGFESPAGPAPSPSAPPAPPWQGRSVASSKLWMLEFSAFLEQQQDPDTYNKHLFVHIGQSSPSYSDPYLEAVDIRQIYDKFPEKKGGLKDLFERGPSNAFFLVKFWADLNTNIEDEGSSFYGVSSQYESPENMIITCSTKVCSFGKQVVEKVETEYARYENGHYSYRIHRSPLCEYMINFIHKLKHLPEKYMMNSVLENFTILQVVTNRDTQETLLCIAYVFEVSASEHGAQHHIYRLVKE

Row | SMILES | IC50 (TEAD1) | IC50 (TEAD3) | IC50 (TEAD4) | IC50 (TEAD2)
1 | C=C(F)C(=O)N1CC(c2nn(-c3ccc(OC(F)(F)F)cc3)c3ccnc(N4CC(O)C4)c23)C1 [Compound 78, 2-fluoro-1-(3-(4-(3-hydroxyazetidin-1-yl)-1-(4-(trifluoromethoxy)phenyl)-1H-pyrazolo[4,3-c]pyridin-3-yl)azetidin-1-yl)prop-2-en-1-one] | 180 nM | 13000 nM | 150 nM | 2800 nM
2 | C=CC(=O)NCc1nn(-c2ccc(OC(F)(F)F)cc2)c2nccc(CN3CC(O)C3)c12 [Compound 54, N-((4-((3-Hydroxyazetidin-1-yl)methyl)-1-(4-(trifluoromethoxy)phenyl)-1H-pyrazolo[3,4-b]pyridin-3-yl)methyl)acrylamide] | 490 nM | 10000 nM | 860 nM | 730 nM
3 | C=C(F)C(=O)N1CC(c2nn(-c3ccc(OC(F)(F)F)cc3C)c3nccc(CO)c23)C1 [Compound 184, 2-fluoro-1-(3-(4-(hydroxymethyl)-1-(2-methyl-4-(trifluoromethoxy)phenyl)-1H-pyrazolo[3,4-b]pyridin-3-yl)azetidin-1-yl)prop-2-en-1-one] | 140 nM | 790 nM | 100 nM | 2300 nM
4 | C=CC(=O)NCc1nn(-c2ccc(S(F)(F)(F)(F)F)cc2)c2ncccc12 [Compound 13, N-((1-(4-(pentafluoro-λ^6-sulfanyl)phenyl)-1H-pyrazolo[3,4-b]pyridin-3-yl)methyl)acrylamide] | 10 nM | 230 nM | 8.6 nM | 330 nM
5 | C=CC(=O)NCc1nn(-c2ccc(OC(F)(F)F)cc2)c2nccc([C@H]3C[C@H](O)C3)c12 [Compound 56, N-((4-(trans-3-hydroxycyclobutyl)-1-(4-(trifluoromethoxy)phenyl)-1H-pyrazolo[3,4-b]pyridin-3-yl)methyl)acrylamide] | 39 nM | 50000 nM | 11 nM | 85 nM
6 | C=C(F)C(=O)N1CC(c2nn(-c3ccc(OC(F)(F)F)cc3Cl)c3nccc(CO)c23)C1 [Compound 183, 1-(3-(1-(2-chloro-4-(trifluoromethoxy)phenyl)-4-(hydroxymethyl)-1H-pyrazolo[3,4-b]pyridin-3-yl)azetidin-1-yl)-2-fluoroprop-2-en-1-one] | 180 nM | 1100 nM | 110 nM | 1800 nM
7 | C=CC(=O)NCc1nn(-c2ccc(OC(F)(F)F)cc2)c2nccc(-c3c[nH]cn3)c12 [Compound 119, N-((4-(1H-Imidazol-4-yl)-1-(4-(trifluoromethoxy)phenyl)-1H-pyrazolo[3,4-b]pyridin-3-yl)methyl)acrylamide] | 160 nM | 550 nM | 110 nM | 250 nM
8 | C=CC(=O)NCc1nn(-c2ccc(OC(F)(F)F)cc2)c2nccc(-c3cnn(C4COC4)c3)c12 [Compound 171, N-[[4-[1-(oxetan-3-yl)pyrazol-4-yl]-1-[4-(trifluoromethoxy)phenyl]pyrazolo[3,4-b]pyridin-3-yl]methyl]prop-2-enamide] | 60 nM | 810 nM | 29 nM | 330 nM
9 | C=CC(=O)NCc1nn(-c2ccc(OC(F)(F)F)cc2)c2nccc(N3CC(CO)C3)c12 [Compound 43, N-((4-(3-(hydroxymethyl)azetidin-1-yl)-1-(4-(trifluoromethoxy)phenyl)-1H-pyrazolo[3,4-b]pyridin-3-yl)methyl)acrylamide] | 13 nM | 780 nM | 4.6 nM | 54 nM
10 | C=C(F)C(=O)N1CC(c2nn(-c3ccc(OC(F)(F)F)cc3)c3nccc(-c4c[nH]cn4)c23)C1 [Compound 130, 1-(3-(4-(1H-Imidazol-4-yl)-1-(4-(trifluoromethoxy)phenyl)-1H-pyrazolo[3,4-b]pyridin-3-yl)azetidin-1-yl)-2-fluoroprop-2-en-1-one] | 380 nM | 5400 nM | 540 nM | 1000 nM
11 | O=C(C1=CCOC1)N1CC(c2nn(-c3ccc(OC(F)(F)F)cc3)c3nccc(CO)c23)C1 [Compound 152, (2,5-Dihydrofuran-3-yl)(3-(4-(hydroxymethyl)-1-(4-(trifluoromethoxy)phenyl)-1H-pyrazolo[3,4-b]pyridin-3-yl)azetidin-1-yl)methanone] | 220 nM | 1200 nM | 140 nM | 810 nM
12 | O=C(/C=C/CO)N1CC(c2nn(-c3ccc(OC(F)(F)F)cc3)c3nccc(-c4cn[nH]c4)c23)C1 [Compound 50, (E)-1-(3-(4-(1H-Pyrazol-4-yl)-1-(4-(trifluoromethoxy)phenyl)-1H-pyrazolo[3,4-b]pyridin-3-yl)azetidin-1-yl)-4-hydroxybut-2-en-1-one] | 24 nM | 200 nM | 9.5 nM | 75 nM
